# Biological target: HIV-1 pNL4-3 integrase (Human immunodeficiency virus type 1 group M subtype B (isolate NY5) (HIV-1), UniProt P12497)
# Assay: Determination of enzyme (HIV integrase) inhibitory activity
# Type: biochemical
# Settings: calculated from inhibition rate (fluorescence)
# Experimental: The following explains evaluation methods of the HIV integrase inhibitory activity of the compound of the present invention.
# A full-length gene sequence (Accession No.: M19921) of HIV-1 pNL4-3 integrase was inserted into restriction enzyme Nde I and Xho I sites of plasmid pET21a(+) (manufactured by Novagen) to construct an integrase expression vector pET21a-IN-Wild type.
# Escherichia coli recombinant BL21(DE3) transformed with plasmid pET21a-IN-Wild type obtained in (i) was shake cultured at 30° C. in a liquid medium containing ampicillin. When the culture reached the logarithmic growth phase, isopropyl-β-D-thiogalactopyranoside was added to promote expression of integrase gene. The culture was continued for 5 hr to promote accumulation of the integrase protein. The recombinant E. coli was collected in pellets by centrifugal separation and preserved at −80° C.
# This Escherichia coli was suspended in Lysis buffer (50 mM Tris-HCl (pH 7.6), 10 mM MgCl2, 5 mM DTT), and disrupted by repeating treatments of pressurization and depressurization, and insoluble fraction was collected by centrifugation at 4° C., 18,000 rpm for 60 min. This was suspended in Lysis buffer containing a protease inhibitor, […] and 10 mM CHAPS were added, and the mixture was stirred at 4° C. for 30 min. Water-soluble fraction was collected by centrifugation at 4° C., 9,000 rpm for 30 min. The obtained fraction was diluted with a column buffer (50 mM Tris-HCl (pH 7.6), 1 mM DTT, 10% Glycerol, 10 mM CHAPS) to 5-fold, and the mixture was applied to heparin column (HiPrep 16/10 Heparin FF column: manufactured by GE Healthcare Bio-Sciences). Using a column buffer containing 1M NaCl, a protein was eluted with 0-1M NaCl concentration gradient, and an eluted fraction containing an integrase protein was collected. The obtained fraction was diluted 5-fold with a column buffer (50 mM Tris-HCl (pH 7.6), 1 mM DTT, 10% Glycerol, 10 mM CHAPS), and the mixture was applied to cation exchange column (Mono-S column: manufactured by GE Healthcare Bio-Sciences). Using a column buffer containing 1M NaCl, a protein was eluted with 0-1M NaCl concentration gradient, and an eluted fraction containing an integrase protein was collected. The obtained fractions of the integrase protein were collected, and preserved at −80° C.
# The following DNA synthesized by FASMAC was dissolved in TE buffer (10 mM Tris-hydrochloric acid (pH 8.0), 1 mM EDTA) and mixed with donor DNA, target DNA, and each complementary strand (+ and − strands) to 1 μM. The mixture was heated at 95° C. for 5 min, 80° C. for 10 min, 70° C. for 10 min, 60° C. for 10 min, 50° C. for 10 min and 40° C. for 10 min and kept at 25° C. to give a double stranded DNA, which was used for the test.
# Donor DNA (+strand having biotin attached to the 5′ terminal)
# Target DNA (+, − strands both having digoxigenin attached to the 3′ terminal)
# The donor DNA was diluted with TE buffer to 20 nM, of which 50 μL was added to each well of streptavidin-coated black plate (manufactured by PIAS Corporation) and allowed to adsorb at 37° C. for 20 min. The plate was washed with phosphate buffer (Dulbecco's PBS, Sanko Junyaku Co., Ltd.) containing 0.1% Tween 20 and phosphate buffer. Then, an enzyme reaction mixture (70 μL), a test substance (10 μL) diluted with the enzyme reaction mixture and 0.75 μM integrase protein (10 μL) were added to each well and the mixture was reacted at 37° C. for 60 min. composition of enzyme reaction mixture: 30 mM MOPS (3-morpholinopropanesulfonic acid), 5 mM magnesium chloride, 3 mM DTT (dithiothreitol), 0.1 mg/mL BSA (bovine serum albumin), 5% glycerol, 10% DMSO (dimethyl sulfoxide), 0.01% Tween 20.
# Then, 25 nM target DNA (10 μL) was added, and the mixture was reacted at 37° C. for 20 min and washed with phosphate buffer containing 0.1% Tween 20 to stop the reaction. […]
row,SMILES,IC50
1,COCCOCC1(C)CN(C(C)C)C(=O)c2c(O)c(=O)c(-c3ncc(Cc4ccc(F)cc4)s3)cn21 (stereo not drawn) [Example 110],23 nM
2,COCCOC[C@H]1Cn2cc(-c3ncc(Cc4ccc(F)cc4F)s3)c(=O)c(O)c2C(=O)N1C(C)C [Example 59],12 nM
3,O=C1c2c(O)c(=O)c(-c3nnc(Cc4ccc(F)cc4F)s3)cn2C2(CCOCC2)CN1C1CC1 [Example 30],9 nM
4,COC1CN(C(=O)[C@@]2(C)CN(C(C)C)C(=O)c3c(O)c(=O)c(-c4nnc(Cc5ccc(F)cc5)s4)cn32)C1 [Example 209],12 nM
5,COC1CN(C(=O)[C@@]2(C)CN(C(C)C)C(=O)c3c(O)c(=O)c(-c4ncc(Cc5ccc(F)cc5)s4)cn32)C1 [Example 237],13 nM
6,CC(C)CNC(=O)CC1CN(C(C)C)C(=O)c2c(O)c(=O)c(-c3ncc(Cc4ccc(F)cc4F)s3)cn21 (stereo not drawn) [Example 40],13 nM
7,CC(C)N1C[C@H](CS(=O)(=O)C(C)(C)C)n2cc(-c3nnc(Cc4ccc(F)cc4)s3)c(=O)c(O)c2C1=O [Example 360],11 nM
8,CC1(C)Cn2cc(-c3nnc(Cc4ccc(F)cc4F)s3)c(=O)c(O)c2C(=O)N1C1CCOC1 (stereo not drawn) [Example 70],8.9 nM
9,CN(C)C(=O)[C@@]1(C)CN(C)C(=O)c2c(O)c(=O)c(-c3ncc(Cc4ccc(F)cc4F)s3)cn21 [Example 336],7.2 nM
10,CCN1C(=O)c2c(O)c(=O)c(-c3nnc(Cc4ccc(F)cc4F)s3)cn2CC1(COC)COC [Example 319],5.8 nM
11,CC(C)N1C(=O)c2c(O)c(=O)c(-c3nnc(Cc4ccc(F)cc4)s3)cn2C[C@@]1(C)C(=O)N1CCOCC1 [Example 311],9.7 nM
12,CCN1C(=O)c2c(O)c(=O)c(-c3nnc(Cc4ccc(F)cc4)s3)cn2[C@@H](C)[C@@H]1COC [Example 298],9 nM
13,CNC(=O)[C@]1(C)CN(C(C)C)C(=O)c2c(O)c(=O)c(-c3ncc(Cc4ccc(F)cc4)s3)cn21 [Example 227],13 nM
14,CCNC(=O)[C@@]1(C)CN(C(C)(C)C)C(=O)c2c(O)c(=O)c(-c3nnc(Cc4ccc(F)cc4)s3)cn21 [Example 189],20 nM
15,CCNC(=O)[C@]1(C)CN(C2CC2)C(=O)c2c(O)c(=O)c(-c3ncc(Cc4ccc(F)cc4)s3)cn21 [Example 267],11 nM
16,CCNC(=O)[C@]1(COCCOC)CN(C(C)C)C(=O)c2c(O)c(=O)c(-c3ncc(Cc4ccc(F)cc4)s3)cn21 [Example 394],14 nM
17,CC(=O)N(C)C[C@@H]1Cn2cc(-c3nnc(Cc4ccc(F)cc4)s3)c(=O)c(O)c2C(=O)N1C(C)C [Example 163],7.7 nM
18,CCC(OC)[C@H]1CN(C(C)C)C(=O)c2c(O)c(=O)c(-c3nnc(Cc4ccc(F)cc4)s3)cn21 (stereo partly drawn) [Example 382],8.7 nM
19,CO[C@@H]1CCN(C(=O)[C@@]2(C)CN(C(C)C)C(=O)c3c(O)c(=O)c(-c4ncc(Cc5ccc(F)cc5)s4)cn32)C1 [Example 213],15 nM
20,CC(C)N1C(=O)c2c(O)c(=O)c(-c3nnc(Cc4ccc(F)cc4F)s3)cn2C[C@H]1CNC(=O)C(C)(C)C [Example 138],11 nM
21,CNC(=O)C1Cn2cc(-c3nnc(Cc4ccc(F)cc4F)s3)c(=O)c(O)c2C(=O)N1C(C)C (stereo not drawn) [Example 51],5.7 nM
22,COC[C@@H]1Cn2cc(-c3nnc(Cc4ccc(F)c(F)c4)s3)c(=O)c(O)c2C(=O)N1C(C)C [Example 150],6.1 nM
23,COCC1(COC)Cn2cc(-c3nnc(Cc4ccc(F)cc4)s3)c(=O)c(O)c2C(=O)N1C(C)C [Example 320],9.4 nM
24,CC(C)N1C[C@@](C)(C(=O)N(C)C)n2cc(-c3nnc(Cc4ccc(F)cc4F)s3)c(=O)c(O)c2C1=O [Example 171],16 nM
25,CC(=O)NCC1CN(C(C)C)C(=O)c2c(O)c(=O)c(-c3ncc(Cc4ccc(F)cc4F)s3)cn21 (stereo not drawn) [Example 67],7.6 nM
26,CC(=O)N(C)CC1CN(C(C)C)C(=O)c2c(O)c(=O)c(-c3ncc(Cc4ccc(F)cc4F)s3)cn21 (stereo not drawn) [Example 80],9.8 nM

row,SMILES,IC50
1,C[C@]1(C(=O)N2CCC2)CN(CC2CC2)C(=O)c2c(O)c(=O)c(-c3ncc(Cc4ccc(F)cc4)s3)cn21 [Example 255],9 nM
2,CC(C)OC[C@H]1CN(C(C)C)C(=O)c2c(O)c(=O)c(-c3nnc(Cc4ccc(F)cc4)s3)cn21 [Example 365],12 nM
3,COC[C@@H]1Cn2cc(-c3nnc(Cc4ccc(F)cc4F)s3)c(=O)c(O)c2C(=O)N1C1CCC1 [Example 93],7.8 nM
4,CCN1C(=O)c2c(O)c(=O)c(-c3ncc(Cc4ccc(F)cc4)s3)cn2C[C@@]1(C)C(=O)N(C)C [Example 253],7.7 nM
5,COC[C@H]1Cn2cc(-c3nnc(Cc4ccc(F)cc4)s3)c(=O)c(O)c2C(=O)N1C(C)C [Example 95],9.5 nM
6,CCN1C(=O)c2c(O)c(=O)c(-c3ncc(Cc4ccc(F)cc4)s3)cn2C[C@H]1C(C)C [Example 329],6.1 nM
7,CC(C)N1C[C@H](C)n2cc(-c3nnc(Cc4ccc(F)cc4F)s3)c(=O)c(O)c2C1=O [Example 149],5.9 nM
8,CC(C)N1C[C@](C)(C(=O)N2CC(O)C2)n2cc(-c3nnc(Cc4ccc(F)cc4)s3)c(=O)c(O)c2C1=O [Example 208],12 nM
9,CCNC(=O)C1CN(C(C)C)C(=O)c2c(O)c(=O)c(-c3ncc(Cc4ccc(F)cc4F)s3)cn21 (stereo not drawn) [Example 25],11 nM
10,CCN(C)C(=O)C1(C)CN(C)C(=O)c2c(O)c(=O)c(-c3ncc(Cc4ccc(F)cc4F)s3)cn21 (stereo not drawn) [Example 161],7.8 nM
11,CCN1C(=O)c2c(O)c(=O)c(-c3nnc(Cc4ccc(F)cc4)s3)cn2[C@@H](COC)[C@@H]1C [Example 284],11 nM
12,CNC(=O)C1(C)CN(C(C)C)C(=O)c2c(O)c(=O)c(-c3ncc(Cc4ccc(F)cc4F)s3)cn21 (stereo not drawn) [Example 29],10 nM
13,COC[C@@H]1[C@@H](C)N(C(C)C)C(=O)c2c(O)c(=O)c(-c3nnc(Cc4ccc(F)cc4)s3)cn21 [Example 288],8.8 nM
14,CCCOC[C@H]1CN(C(C)C)C(=O)c2c(O)c(=O)c(-c3nnc(Cc4ccc(F)cc4)s3)cn21 [Example 363],8.7 nM
15,CCN1C(=O)c2c(O)c(=O)c(-c3ncc(Cc4ccc(F)cc4)s3)cn2C[C@]1(C)C(=O)NC [Example 292],7.3 nM
16,COCCOC[C@H]1Cn2cc(-c3nnc(Cc4ccc(F)cc4F)s3)c(=O)c(O)c2C(=O)N1CC(C)C [Example 55],21 nM
17,COCCN(C)C(=O)CC1CN(C(C)C)C(=O)c2c(O)c(=O)c(-c3ncc(Cc4ccc(F)cc4F)s3)cn21 (stereo not drawn) [Example 73],7.7 nM
18,CC(C)N1C(=O)c2c(O)c(=O)c(-c3nnc(Cc4ccc(F)cc4F)s3)cn2C[C@H]1C [Example 156],4.6 nM
19,CCN1C(=O)c2c(O)c(=O)c(-c3ncc(Cc4ccc(F)cc4)s3)cn2C[C@H]1[C@H](C)OC [Example 333],7.5 nM
20,CCN1C(=O)c2c(O)c(=O)c(-c3nnc(Cc4ccc(F)cc4)s3)cn2[C@H](C)[C@H]1COC [Example 305],9.5 nM
21,CC(C)N1CC(CC#N)n2cc(-c3ncc(Cc4ccc(F)cc4F)s3)c(=O)c(O)c2C1=O (stereo not drawn) [Example 49],5.1 nM
22,CN(C)C(=O)[C@]1(C)CN(C)C(=O)c2c(O)c(=O)c(-c3ncc(Cc4ccc(F)cc4)s3)cn21 [Example 264],8.5 nM
23,CC(=O)CC1CN(C(C)C)C(=O)c2c(O)c(=O)c(-c3ncc(Cc4ccc(F)cc4F)s3)cn21 (stereo not drawn) [Example 151],5.4 nM
24,CCN1C[C@H](COC)n2cc(-c3nnc(Cc4ccc(F)cc4F)s3)c(=O)c(O)c2C1=O [Example 97],6.6 nM
25,COCC1CN(C(=O)[C@@]2(C)CN(C(C)C)C(=O)c3c(O)c(=O)c(-c4ncc(Cc5ccc(F)cc5)s4)cn32)C1 [Example 238],18 nM

# Source: patent publication US10065950B2, “Substituted thiazoles as HIV integrase inhibitors” (Japan Tobacco Inc., priority 2010, dated 2018)
